Test results reported in the NIST ThermoML archive (doi:10.1016/j.tca.2018.01.023).
Where “and” joins values, the source holds several entries; their conditions need not be identical. Equal entries are not always repeated. Numbers after ± are expanded uncertainties.

Test: molar heat capacity at constant pressure
Conditions: 101.33 kPa, Crystal, Small sample (50 mg) DSC

[Ca+2].[O]=[Mo](=[O])([O-])[O-] [calcium molybdate(VI)]
Conditions	molar heat capacity at constant pressure
495.4 K	135.5 ± 5.7 J/K/mol
495.8 K	135.8 ± 5.8 J/K/mol
496.4 K	135.6 ± 5.8 J/K/mol
496.8 K	135.8 ± 5.8 J/K/mol
497.4 K	135.6 ± 5.8 J/K/mol
497.8 K	135.9 ± 5.8 J/K/mol
498.4 K	135.7 ± 5.8 J/K/mol
498.8 K	136 ± 5.8 J/K/mol
499.4 K	135.8 ± 5.8 J/K/mol
499.8 K	136 ± 5.8 J/K/mol
500 K	136 ± 5.8 J/K/mol
500.4 K	135.9 ± 5.8 J/K/mol
500.8 K	136.1 ± 5.8 J/K/mol
501.4 K	136 ± 5.8 J/K/mol
501.8 K	136.1 ± 5.8 J/K/mol
502.4 K	136.1 ± 5.8 J/K/mol
502.8 K	136.1 ± 5.8 J/K/mol
503.4 K	136.2 ± 5.8 J/K/mol
503.8 K	136.2 ± 5.8 J/K/mol
504.4 K	136.2 ± 5.8 J/K/mol
504.8 K	136.2 ± 5.8 J/K/mol
505.4 K	136.3 ± 5.8 J/K/mol
505.8 K	136.3 ± 5.8 J/K/mol
506.4 K	136.3 ± 5.8 J/K/mol
506.8 K	136.4 ± 5.8 J/K/mol
507.4 K	136.4 ± 5.8 J/K/mol
507.8 K	136.5 ± 5.8 J/K/mol
508.4 K	136.5 ± 5.8 J/K/mol
508.8 K	136.5 ± 5.8 J/K/mol
509.4 K	136.6 ± 5.8 J/K/mol
509.8 K	136.5 ± 5.8 J/K/mol
510 K	136.6 ± 5.8 J/K/mol
510.4 K	136.6 ± 5.8 J/K/mol
510.8 K	136.6 ± 5.8 J/K/mol
511.4 K	136.7 ± 5.8 J/K/mol
511.8 K	136.7 ± 5.8 J/K/mol
512.4 K	136.8 ± 5.8 J/K/mol
512.8 K	136.8 ± 5.8 J/K/mol
513.4 K	136.9 ± 5.8 J/K/mol
513.8 K	136.9 ± 5.8 J/K/mol
514.4 K	137 ± 5.8 J/K/mol
514.8 K	136.9 ± 5.8 J/K/mol
515.4 K	137.1 ± 5.8 J/K/mol
515.8 K	137 ± 5.8 J/K/mol
516.4 K	137.1 ± 5.8 J/K/mol
516.8 K	137 ± 5.8 J/K/mol
517.4 K	137.2 ± 5.8 J/K/mol
517.8 K	137.1 ± 5.8 J/K/mol
518.4 K	137.3 ± 5.8 J/K/mol
518.8 K	137.2 ± 5.8 J/K/mol
519.4 K	137.3 ± 5.8 J/K/mol
519.8 K	137.3 ± 5.8 J/K/mol
520 K	137.3 ± 5.8 J/K/mol
520.4 K	137.4 ± 5.8 J/K/mol
520.8 K	137.3 ± 5.8 J/K/mol
521.4 K	137.5 ± 5.8 J/K/mol
521.8 K	137.4 ± 5.8 J/K/mol
522.4 K	137.6 ± 5.8 J/K/mol
522.8 K	137.5 ± 5.8 J/K/mol
523.4 K	137.7 ± 5.8 J/K/mol
523.8 K	137.6 ± 5.8 J/K/mol
524.4 K	137.7 ± 5.8 J/K/mol
524.8 K	137.6 ± 5.8 J/K/mol
525.4 K	137.8 ± 5.8 J/K/mol
525.8 K	137.7 ± 5.8 J/K/mol
526.4 K	137.8 ± 5.8 J/K/mol
526.8 K	137.7 ± 5.8 J/K/mol
527.4 K	137.9 ± 5.9 J/K/mol
527.8 K	137.7 ± 5.8 J/K/mol
528.4 K	137.9 ± 5.9 J/K/mol
528.9 K	137.8 ± 5.8 J/K/mol
529.4 K	138 ± 5.9 J/K/mol
529.9 K	137.8 ± 5.8 J/K/mol
530 K	137.9 ± 5.9 J/K/mol
530.4 K	138.1 ± 5.9 J/K/mol
530.9 K	137.8 ± 5.8 J/K/mol
531.4 K	138.1 ± 5.9 J/K/mol
531.9 K	137.8 ± 5.8 J/K/mol
532.4 K	138.2 ± 5.9 J/K/mol
532.9 K	137.9 ± 5.9 J/K/mol
533.4 K	138.2 ± 5.9 J/K/mol
533.9 K	138 ± 5.9 J/K/mol
534.4 K	138.3 ± 5.9 J/K/mol
534.9 K	138.1 ± 5.9 J/K/mol
535.4 K	138.3 ± 5.9 J/K/mol
535.9 K	138.2 ± 5.9 J/K/mol
536.4 K	138.4 ± 5.9 J/K/mol
536.9 K	138.3 ± 5.9 J/K/mol
537.4 K	138.5 ± 5.9 J/K/mol
537.9 K	138.4 ± 5.9 J/K/mol
538.4 K	138.5 ± 5.9 J/K/mol
538.9 K	138.5 ± 5.9 J/K/mol
539.4 K	138.6 ± 5.9 J/K/mol
539.9 K	138.7 ± 5.9 J/K/mol
540 K	138.4 ± 5.9 J/K/mol
540.4 K	138.7 ± 5.9 J/K/mol
540.9 K	138.8 ± 5.9 J/K/mol
541.4 K	138.7 ± 5.9 J/K/mol
541.9 K	138.8 ± 5.9 J/K/mol
542.4 K	138.8 ± 5.9 J/K/mol
542.9 K	138.8 ± 5.9 J/K/mol
543.4 K	138.8 ± 5.9 J/K/mol
543.9 K	138.9 ± 5.9 J/K/mol
544.4 K	138.9 ± 5.9 J/K/mol
544.9 K	138.9 ± 5.9 J/K/mol
545.4 K	138.9 ± 5.9 J/K/mol
545.9 K	138.9 ± 5.9 J/K/mol
546.4 K	139 ± 5.9 J/K/mol
546.9 K	138.9 ± 5.9 J/K/mol
547.4 K	139 ± 5.9 J/K/mol
547.9 K	139 ± 5.9 J/K/mol
548.4 K	139 ± 5.9 J/K/mol
548.9 K	139.1 ± 5.9 J/K/mol
549.4 K	139 ± 5.9 J/K/mol
549.9 K	139.2 ± 5.9 J/K/mol
550 K	139 ± 5.9 J/K/mol
550.4 K	139.1 ± 5.9 J/K/mol
550.9 K	139.3 ± 5.9 J/K/mol
551.4 K	139.1 ± 5.9 J/K/mol
551.9 K	139.5 ± 5.9 J/K/mol
552.4 K	139.2 ± 5.9 J/K/mol
552.9 K	139.6 ± 5.9 J/K/mol
553.4 K	139.2 ± 5.9 J/K/mol
553.9 K	139.7 ± 5.9 J/K/mol
554.4 K	139.3 ± 5.9 J/K/mol
554.9 K	139.8 ± 5.9 J/K/mol
555.4 K	139.3 ± 5.9 J/K/mol
555.9 K	139.8 ± 5.9 J/K/mol
556.4 K	139.4 ± 5.9 J/K/mol
556.9 K	139.8 ± 5.9 J/K/mol
557.4 K	139.5 ± 5.9 J/K/mol
557.9 K	139.8 ± 5.9 J/K/mol
558.4 K	139.5 ± 5.9 J/K/mol
558.9 K	139.8 ± 5.9 J/K/mol
559.4 K	139.6 ± 5.9 J/K/mol
559.9 K	139.9 ± 5.9 J/K/mol
560 K	139.5 ± 5.9 J/K/mol
560.4 K	139.7 ± 5.9 J/K/mol
560.9 K	139.9 ± 5.9 J/K/mol
561.4 K	139.7 ± 5.9 J/K/mol
561.9 K	140 ± 5.9 J/K/mol
562.4 K	139.8 ± 5.9 J/K/mol
562.9 K	140.2 ± 5.9 J/K/mol
563.4 K	139.8 ± 5.9 J/K/mol
563.9 K	140.4 ± 6 J/K/mol
564.4 K	139.9 ± 5.9 J/K/mol
564.9 K	140.6 ± 6 J/K/mol
565.4 K	139.9 ± 5.9 J/K/mol
565.9 K	140.7 ± 6 J/K/mol
566.4 K	139.9 ± 5.9 J/K/mol
566.9 K	140.8 ± 6 J/K/mol
567.4 K	139.9 ± 5.9 J/K/mol
568 K	140.8 ± 6 J/K/mol
568.4 K	140 ± 5.9 J/K/mol
569 K	140.9 ± 6 J/K/mol
569.4 K	140.1 ± 5.9 J/K/mol
570 K	140 ± 5.9 J/K/mol and 141 ± 6 J/K/mol
570.4 K	140.2 ± 5.9 J/K/mol
571 K	141 ± 6 J/K/mol
571.4 K	140.2 ± 5.9 J/K/mol
572 K	141 ± 6 J/K/mol
572.4 K	140.3 ± 6 J/K/mol
573 K	141 ± 6 J/K/mol
573.4 K	140.3 ± 6 J/K/mol
574 K	141.1 ± 6 J/K/mol
574.4 K	140.4 ± 6 J/K/mol
575 K	141.2 ± 6 J/K/mol
575.4 K	140.4 ± 6 J/K/mol
576 K	141.2 ± 6 J/K/mol
576.4 K	140.5 ± 6 J/K/mol
577 K	141.3 ± 6 J/K/mol
577.4 K	140.6 ± 6 J/K/mol
578 K	141.3 ± 6 J/K/mol
578.4 K	140.7 ± 6 J/K/mol
579 K	141.2 ± 6 J/K/mol
579.4 K	140.7 ± 6 J/K/mol
580 K	140.5 ± 6 J/K/mol and 141.2 ± 6 J/K/mol
580.4 K	140.8 ± 6 J/K/mol
581 K	141.2 ± 6 J/K/mol
581.4 K	140.8 ± 6 J/K/mol
582 K	141.3 ± 6 J/K/mol
582.4 K	140.8 ± 6 J/K/mol
583 K	141.3 ± 6 J/K/mol
583.4 K	140.9 ± 6 J/K/mol
584 K	141.4 ± 6 J/K/mol
584.4 K	140.9 ± 6 J/K/mol
585 K	141.6 ± 6 J/K/mol
585.4 K	141 ± 6 J/K/mol
586 K	141.7 ± 6 J/K/mol
586.4 K	141 ± 6 J/K/mol
587 K	141.8 ± 6 J/K/mol
587.4 K	141 ± 6 J/K/mol
588 K	141.9 ± 6 J/K/mol
588.4 K	141 ± 6 J/K/mol
589 K	142 ± 6 J/K/mol
589.4 K	141 ± 6 J/K/mol
590 K	141 ± 6 J/K/mol and 142.1 ± 6 J/K/mol
590.4 K	141.1 ± 6 J/K/mol
591 K	142.1 ± 6 J/K/mol
591.4 K	141.2 ± 6 J/K/mol
592 K	142 ± 6 J/K/mol
592.4 K	141.2 ± 6 J/K/mol
593 K	142 ± 6 J/K/mol
593.4 K	141.2 ± 6 J/K/mol
594 K	142 ± 6 J/K/mol
594.4 K	141.2 ± 6 J/K/mol
595 K	142 ± 6 J/K/mol
595.4 K	141.2 ± 6 J/K/mol
596 K	142.1 ± 6 J/K/mol
